The record followed here is article PMC8330735 (Journal of Enzyme Inhibition and Medicinal Chemistry, 2021).

The test system of one data set is HT29 cells. Description: MTS cell viability assay HT29. It counts as cell-based. Particulars: Homo sapiens, HT-29, 48 h, cell line moderately expressing COX-2. As for the experimental part:
(§1) Human colorectal cancer cell lines, HCT116 and HT29, and RAW 264.7 macrophages were obtained from ATCC (Manassas, VA). HCA7 colorectal cancer cell line was obtained from Sigma. HT29 and HCT116 cells were cultured in McCoy's 5 A medium (Sigma Aldrich, St. Louis, MO) containing 10% heat-inactivated foetal bovine serum (HI-FBS) (Gibco, USA), 100 μg/mL streptomycin (Invitrogen, USA), and […] penicillin (Invitrogen, USA)[40]. HCA7 and RAW 264.7 cells were cultured in Dulbecco's minimal essential media (DMEM, Invitrogen) containing 10% HI-FBS, sodium pyruvate (1 mM), penicillin ([…]), and streptomycin (100 mg/m)[41]^,[42].
(§2) Cells were cultured in 96‐well plates for 48 h and then treated with serum-free media containing different concentrations of the tested compounds (12.5, 25, 50, 100 and 150 µM). After 48 h., MTS reagent (Promega) was added as directed by the manufacturer, and then, the absorbance was measured at 495 nm. The absorbance is proportional to the number of viable cells. IC50 was calculated from the dose-response curves as described previously[45] using GraphPad Prism 8 software (GraphPad Software, San Diego, CA).
A general note: Formazan colour is commonly taken as a measure of viable cells.

The next data set relates to HCT116 cells. Description: MTS cell viability assay HCT116. Particulars: Homo sapiens, HCT-116, 48 h, cell line scarcely expressing COX-2. The data set is classed as cell-based. On the procedure: as §1, §2
In data set [1] the test system is stomach ulceration in rats. Particulars: rat, in vivo, 2 days.
Procedure: The rats from the previous experiment were fasted for 12 h., followed by the administration of additional doses of the selected compounds or the two references for two consecutive days. Six hrs after the last treatment, the animals were sacrificed, and their stomachs were removed, washed with saline solution (0.9%) and examined for ulceration using a magnifying lens. The ulcer scores were estimated according to the method prescribed by Kulkarni and as detailed in our previous studies[36–38]. The following scores were individually assigned to each lesion: normal coloured stomach, 0; red colouration, 0.5; spot ulcers, 1; haemorrhagic streaks, 1.5; ulcer >3 but <5 mm, 2; and ulcers >5 mm, 3.
The subject of the next data set is HCA7 cells. Description: MTS cell viability assay HCA7. It counts as cell-based. Conditions: Homo sapiens, HCA-7, 48 h, cell line highly expressing COX-2. On the procedure: as §1, §2
The subject of data set [2] is acetic acid-induced writhing in mice. The experiment in a line: Acetic acid induced writhing test. It counts as in vivo. Conditions: 50 mg/kg p.o., 1 h prior acetic acid i.p., within 30 min. As for the experimental part:
The number of writhes, manifested as extension of hind legs, constriction of abdomen, or turning of trunk was recorded within 30 min.

The test system of data set [3] is carrageenan-induced rat paw oedema. The experiment in a line: Carrageenan-induced rat paw oedema test. The data set is classed as in vivo. Particulars: compounds and celecoxib 50 mg/kg, ibuprofen and indomethacin 20 mg/kg. On the procedure:
The rats were divided into nine groups (n = 5/group). All tested compounds were suspended in 1% Tween-80. Group 1, controls, were given the vehicle (1% Tween80, 10 ml/kg). […] The rats were given the drugs 1 h before the injection of carrageenan solution (1% in 0.9% NaCl, 0.1 ml) (Sigma Aldrich, USA) in the sub-planter tissue of the right hind paw. The paw thickness (mm) was measured using a calliper before (0 h) and after carrageenan injection at 1, 2, 3, 4, 5 and 24 h. The inhibition of oedema thickness was calculated using the following formula (control– drug/control) × 100.
On the technique in general: The carrageenan paw model is a standard test of acute inflammation.

By IC50 is commonly meant the concentration needed to halve the response being measured. The low end stands for greater potency, the high end for weaker potency.

Regarding `Cc1ccc(-c2cc(C(F)(F)F)nn2-c2ccc(S(N)(=O)=O)cc2)cc1` [Celecoxib, reference compound], the IC50 with HT29 cells was 5.82 ± 0.38 µM. In the data set with HCT116 cells, it took 53.77 ± 0.05 µM to reach half-maximal inhibition (IC50). Further, in data set [1], the “Average Ulcer number” value is listed as 0.2, the “Lesion Incidence (%)” value is recorded as 20% and the “Number of rats with ulcer” value is given as 1. The molecule also gave an IC50 in the data set with HCA7 cells of 51.36 ± 0.04 µM. Also, the Number of writhes in data set [2] turned out to be 29.20 writhes. For the same molecule, the “Mean oedema thickness 1h” value in data set [3] (1 h after carrageenan, mean ± SEM, n = 5) came out at 1.27 ± 0.07 mm. The “Mean oedema thickness 2h” value in data set [3] (2 h after carrageenan, mean ± SEM, n = 5) came out at 1.51 ± 0.07 mm. Besides, the “Mean oedema thickness 3h” value in data set [3] (3 h after carrageenan, mean ± SEM, n = 5) was 1.49 ± 0.14 mm. In addition, the “Mean oedema thickness 4h” value in data set [3] (4 h after carrageenan, mean ± SEM, n = 5) is reported as 1.39 ± 0.12 mm. For the same molecule, in data set [3] (5 h after carrageenan, mean ± SEM, n = 5), the “Mean oedema thickness 5h” value came out at 1.19 ± 0.08 mm. The “Mean oedema thickness 24h” value in data set [3] (24 h after carrageenan, mean ± SEM, n = 5) was 0.53 ± 0.12 mm. For the same molecule, the “Mean oedema thickness 0h” value in data set [3] (before carrageenan (0 h), mean ± SEM, n = 5) came to 0.00 ± 0.00 mm. In data set [3] (from area under the curve of all time points), this molecule returned an Average oedema inhibition% of 47.60%.
